Data: article doi:10.1101/2025.09.20.677545v1, “Parallel Evolution of a Drimenol Biosynthetic Gene Cluster Unique to Marine Bacteria” (biorxiv, 2025)

What was measured:
Assay type in all cases: biochemical
[1] = target: T1, Sc terpene synthase β (Sorangium cellulosum, UniProt Z9XJ57G830); assay: GC-MS of product after alkaline phosphatase (BAP) treatment; details: […] FPP, […] enzyme, […] Tris-HCl pH […] MgCl2 (Mg2+ not required), […] °C; cyclization to a diphosphate, product seen only after BAP
T1 construct: codon-optimized, N-terminal His8 tag kept, pET28b(+), E. coli BL21 Star (DE3), TALON; single β domain with DxDVT134-138 motif
T1 sequence (Z9XJ57G830 1-342): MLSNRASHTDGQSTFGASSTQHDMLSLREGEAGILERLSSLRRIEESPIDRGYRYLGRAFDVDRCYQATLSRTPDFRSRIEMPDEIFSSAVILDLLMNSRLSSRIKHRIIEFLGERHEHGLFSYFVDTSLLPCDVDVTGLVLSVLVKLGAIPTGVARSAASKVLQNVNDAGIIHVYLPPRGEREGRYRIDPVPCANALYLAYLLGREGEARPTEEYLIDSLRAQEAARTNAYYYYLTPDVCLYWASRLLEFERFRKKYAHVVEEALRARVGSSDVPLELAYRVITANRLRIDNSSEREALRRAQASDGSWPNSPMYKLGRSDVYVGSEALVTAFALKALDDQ

[2] = target: T2, AsFPPS (Aquimarina spongiae, UniProt A0A1M6CXH4); assay: GC-MS of farnesol after alkaline phosphatase (BAP) treatment; details: 100 μM GPP with 100 μM IPP; otherwise same
T2 construct: gene SAMN04488508_102321; codon-optimized, N-terminal His8 tag kept, pET28b(+), E. coli BL21 Star (DE3), TALON
T2 sequence (A0A1M6CXH4 1-289): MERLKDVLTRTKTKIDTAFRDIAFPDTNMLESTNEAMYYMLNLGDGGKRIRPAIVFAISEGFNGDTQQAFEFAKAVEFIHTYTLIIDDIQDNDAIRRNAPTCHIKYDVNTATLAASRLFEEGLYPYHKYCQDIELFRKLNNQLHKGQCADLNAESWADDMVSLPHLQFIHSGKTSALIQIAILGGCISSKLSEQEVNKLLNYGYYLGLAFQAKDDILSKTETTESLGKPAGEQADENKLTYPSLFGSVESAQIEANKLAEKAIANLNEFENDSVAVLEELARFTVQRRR

[3] = target: T3, FeFPPS (Flavivirga eckloniae, UniProt A0A2K9PVX7); assay: as above; details: 100 μM GPP with 100 μM IPP; otherwise same
T3 construct: gene C1H87_21960; codon-optimized, N-terminal His8 tag kept, pET28b(+), E. coli BL21 Star (DE3), TALON
T3 sequence (A0A2K9PVX7 1-289): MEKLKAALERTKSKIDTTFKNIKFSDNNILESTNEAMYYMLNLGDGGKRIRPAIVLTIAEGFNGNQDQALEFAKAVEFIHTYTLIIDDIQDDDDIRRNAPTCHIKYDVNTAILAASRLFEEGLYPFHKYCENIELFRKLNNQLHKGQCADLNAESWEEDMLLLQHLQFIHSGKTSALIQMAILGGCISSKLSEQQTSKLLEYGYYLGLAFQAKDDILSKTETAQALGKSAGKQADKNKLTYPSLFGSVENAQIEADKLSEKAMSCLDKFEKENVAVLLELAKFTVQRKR

Row | Compound | GC-MS of product after alkaline phosphatase (BAP) treatment [1] | GC-MS of farnesol after alkaline phosphatase (BAP) treatment [2] | GC-MS of farnesol after alkaline phosphatase (BAP) treatment [3]
1 | CC(C)=CCC/C(C)=C/CC/C(C)=C/COP(=O)(O)OP(=O)(O)O [farnesyl pyrophosphate] | Sc terpene synthase β is monofunctional and performs only the cyclization step of FPP |  | 
2 | CC(C)=CCC/C(C)=C/COP(=O)(O)OP(=O)(O)O [geranyl pyrophosphate] |  | dimethylallyl pyrophosphate (DMAPP) or geranyl pyrophosphate (GPP) as an allylic substrate | dimethylallyl pyrophosphate (DMAPP) or geranyl pyrophosphate (GPP) as an allylic substrate
